From ChEMBL document CHEMBL4229385, “Study of the structure-activity relationship of polymyxin analogues” (2018)
≈ marks a conversion by molar mass, not a printed value. Where a SMILES comes first, the peptide text is derived from it. Bridges are numbered along the chain shown (N, C = ends). [ ]: non-standard residue; d: D form. The star is where a group is joined. Benzoyl(4-Ph) = O=C(c1ccc(-c2ccccc2)cc1)*; Bip = N[C@@H](Cc1ccc(-c2ccccc2)cc1)C(=O)O; Octanoyl = CCCCCCCC(=O)*; Dab = NCC[C@H](N)C(=O)O

Legend:
Format in all cases: functional
[1] = tested on: Pseudomonas aeruginosa; assay: Antibacterial activity against Pseudomonas aeruginosa PAO1 by agar dilution method
[2] = tested on: Pseudomonas aeruginosa; assay: Antibacterial activity against Pseudomonas aeruginosa E-2 by agar dilution method
[3] = tested on: Pseudomonas aeruginosa; assay: Antibacterial activity against multidrug-resistant Pseudomonas aeruginosa KUB2705 by agar dilution method
[4] = tested on: Pseudomonas aeruginosa; assay: Antibacterial activity against amikacin/imipenem-resistant Pseudomonas aeruginosa KUB2703 by agar dilution method
[5] = tested on: Pseudomonas aeruginosa; assay: Antibacterial activity against amikacin/ciprofloxacin-resistant Pseudomonas aeruginosa KUB2704 by agar dilution method

| Compound | MIC [1] [µg/mL] | MIC [2] [µg/mL] | MIC [3] [µg/mL] | MIC [4] [µg/mL] | MIC [5] [µg/mL] |
| --- | --- | --- | --- | --- | --- |
| CCCCCCCC(=O)N[C@@H](CCN)C(=O)N[C@H](C(=O)N[C@@H](CCN(C)C)C(=O)N[C@H]1CCNC(=O)[C@H]([C@@H](C)O)NC(=O)[C@H](CCN)NC(=O)[C@H](CCN)NC(=O)[C@H](CC(C)C)NC(=O)[C@@H](CC(C)C)NC(=O)[C@H](CCN)NC1=O)[C@@H](C)O | 4 (≈ 3.38 µM) | 2 (≈ 1.69 µM) | 4 (≈ 3.38 µM) | 4 (≈ 3.38 µM) | 4 (≈ 3.38 µM) |
| CCCCCCCC(=O)N[C@@H](CCN(C)C)C(=O)N[C@H](C(=O)N[C@@H](CCN)C(=O)N[C@H]1CCNC(=O)[C@H]([C@@H](C)O)NC(=O)[C@H](CCN)NC(=O)[C@H](CCN)NC(=O)[C@H](CC(C)C)NC(=O)[C@@H](CC(C)C)NC(=O)[C@H](CCN)NC1=O)[C@@H](C)O | 8 (≈ 6.76 µM) | 4 (≈ 3.38 µM) | 4 (≈ 3.38 µM) | > 16 | 8 (≈ 6.76 µM) |
| C[C@@H](O)[C@@H]1NC(=O)[C@H](CCN)NC(=O)[C@H](CCN)NC(=O)[C@H](Cc2ccc(-c3ccccc3)cc2)NC(=O)[C@@H](Cc2ccccc2)NC(=O)[C@H](CCN)NC(=O)[C@@H](NC(=O)[C@H](CCN)NC(=O)[C@@H](NC(=O)[C@H](CCN)NC(=O)c2ccc(-c3ccccc3)cc2)[C@@H](C)O)CCNC1=O ({Benzoyl(4-Ph)}-[Dab]T[Dab][Dab][Dab][dF][Bip][Dab][Dab]T; lactam 4-C) | 16 (≈ 11.8 µM) | 16 (≈ 11.8 µM) | 16 (≈ 11.8 µM) | 16 (≈ 11.8 µM) | 16 (≈ 11.8 µM) |
| COLISTIN | 4 | 2 | 4 | 2 | 4 |
| C[C@@H](O)[C@@H]1NC(=O)[C@H](CCN)NC(=O)[C@H](CCN)NC(=O)[C@H](Cc2ccccc2)NC(=O)[C@@H](Cc2ccccc2)NC(=O)[C@H](CCN)NC(=O)[C@@H](NC(=O)[C@H](CCN)NC(=O)[C@@H](NC(=O)[C@H](CCN)NC(=O)c2cccc(-c3ccccc3)c2)[C@@H](C)O)CCNC1=O | 8 (≈ 6.26 µM) | 8 (≈ 6.26 µM) | 4 (≈ 3.13 µM) | 8 (≈ 6.26 µM) | 8 (≈ 6.26 µM) |
| CCCCCCCC(=O)N[C@@H](CCN)C(=O)N[C@H](C(=O)N[C@@H](CCN)C(=O)N[C@H]1CCNC(=O)[C@H]([C@@H](C)O)NC(=O)[C@H](CCN)NC(=O)[C@H](CCN)NC(=O)[C@H](CC(C)C)NC(=O)[C@@H](CC(C)C)NC(=O)[C@H](CCN(C)C)NC1=O)[C@@H](C)O | > 16 | > 16 | 8 (≈ 6.76 µM) | > 16 | > 16 |
| C[C@@H](O)[C@@H]1NC(=O)[C@H](CCN)NC(=O)[C@H](CCN)NC(=O)[C@H](Cc2ccc(-c3ccccc3)cc2)NC(=O)[C@@H](Cc2ccccc2)NC(=O)[C@H](CCN)NC(=O)[C@@H](NC(=O)[C@H](CCN)NC(=O)[C@@H](NC(=O)[C@H](CCN)NC(=O)c2ccccc2)[C@@H](C)O)CCNC1=O | 8 (≈ 6.26 µM) | 16 (≈ 12.5 µM) | 8 (≈ 6.26 µM) | 8 (≈ 6.26 µM) | 8 (≈ 6.26 µM) |
| CCCCCCCCC(CCCCCC)C(=O)N[C@@H](CCN)C(=O)N[C@H](C(=O)N[C@@H](CCN)C(=O)N[C@H]1CCNC(=O)[C@H]([C@@H](C)O)NC(=O)[C@H](CCN)NC(=O)[C@H](CCN)NC(=O)[C@H](CC(C)C)NC(=O)[C@@H](CC(C)C)NC(=O)[C@H](CCN)NC1=O)[C@@H](C)O (stereo not given in full) | > 16 | 16 (≈ 12.6 µM) | > 16 | 16 (≈ 12.6 µM) | > 16 |
| CCCCCCCCC(CCCCCCCC)C(=O)N[C@@H](CCN)C(=O)N[C@H](C(=O)N[C@@H](CCN)C(=O)N[C@H]1CCNC(=O)[C@H]([C@@H](C)O)NC(=O)[C@H](CCN)NC(=O)[C@H](CCN)NC(=O)[C@H](CC(C)C)NC(=O)[C@@H](CC(C)C)NC(=O)[C@H](CCN)NC1=O)[C@@H](C)O | > 16 | > 16 | > 16 | > 16 | > 16 |
| C[C@@H](O)[C@@H]1NC(=O)[C@H](CCN)NC(=O)[C@H](CCN)NC(=O)[C@H](Cc2ccccc2)NC(=O)[C@@H](Cc2ccc(-c3ccccc3)cc2)NC(=O)[C@H](CCN)NC(=O)[C@@H](NC(=O)[C@H](CCN)NC(=O)[C@@H](NC(=O)[C@H](CCN)NC(=O)c2ccc(-c3ccccc3)cc2)[C@@H](C)O)CCNC1=O | 16 (≈ 11.8 µM) | 16 (≈ 11.8 µM) | 16 (≈ 11.8 µM) | 16 (≈ 11.8 µM) | 16 (≈ 11.8 µM) |
| C[C@@H](O)[C@@H]1NC(=O)[C@H](CCN)NC(=O)[C@H](CCN)NC(=O)[C@H](Cc2ccccc2)NC(=O)[C@@H](Cc2ccc(-c3ccccc3)cc2)NC(=O)[C@H](CCN)NC(=O)[C@@H](NC(=O)[C@H](CCN)NC(=O)[C@@H](NC(=O)[C@H](CCN)NC(=O)c2ccccc2)[C@@H](C)O)CCNC1=O | 4 (≈ 3.13 µM) | 8 (≈ 6.26 µM) | 8 (≈ 6.26 µM) | 8 (≈ 6.26 µM) | 8 (≈ 6.26 µM) |
| C[C@@H](O)[C@@H]1NC(=O)[C@H](CCN)NC(=O)[C@H](CCN)NC(=O)[C@H](Cc2ccccc2)NC(=O)[C@@H](Cc2ccc(-c3ccccc3)cc2)NC(=O)[C@H](CCN)NC(=O)[C@@H](NC(=O)[C@H](CCN)NC(=O)[C@@H](NC(=O)[C@H](CCN)NC(=O)c2cccc(-c3ccccc3)c2)[C@@H](C)O)CCNC1=O | 16 (≈ 11.8 µM) | > 16 | 16 (≈ 11.8 µM) | 16 (≈ 11.8 µM) | 16 (≈ 11.8 µM) |
| CCCCCCCC(=O)N[C@@H](CCN)C(=O)N[C@H](C(=O)N[C@@H](CCN)C(=O)N[C@H]1CCNC(=O)[C@H]([C@@H](C)O)NC(=O)[C@H](CCN)NC(=O)[C@H](CCN)NC(=O)[C@H](CC(C)C)NC(=O)[C@@H](CC(C)C)NC(=O)[C@H](CCN)NC1=O)[C@@H](C)O (Octanoyl-[Dab]T[Dab][Dab][Dab][dL]L[Dab][Dab]T; lactam 4-C) | 8 (≈ 6.92 µM) | 4 (≈ 3.46 µM) | 4 (≈ 3.46 µM) | 16 (≈ 13.8 µM) | 8 (≈ 6.92 µM) |
| CCCCC/C=C\C/C=C\CCCCCCCC(=O)N[C@@H](CCN)C(=O)N[C@H](C(=O)N[C@@H](CCN)C(=O)N[C@H]1CCNC(=O)[C@H]([C@@H](C)O)NC(=O)[C@H](CCN)NC(=O)[C@H](CCN)NC(=O)[C@H](CC(C)C)NC(=O)[C@@H](CC(C)C)NC(=O)[C@H](CCN)NC1=O)[C@@H](C)O | > 16 | 16 (≈ 12.4 µM) | > 16 | > 16 | > 16 |
| CCCCCCCC(=O)N[C@@H](CCN)C(=O)N[C@H](C(=O)N[C@@H](CCN)C(=O)N[C@H]1CCNC(=O)[C@H]([C@@H](C)O)NC(=O)[C@H](CCN(C)C)NC(=O)[C@H](CCN)NC(=O)[C@H](CC(C)C)NC(=O)[C@@H](CC(C)C)NC(=O)[C@H](CCN)NC1=O)[C@@H](C)O | > 16 | > 16 | 16 (≈ 13.5 µM) | > 16 | > 16 |
| C[C@@H](O)[C@@H]1NC(=O)[C@H](CCN)NC(=O)[C@H](CCN)NC(=O)[C@H](Cc2ccc(-c3ccccc3)cc2)NC(=O)[C@@H](Cc2ccccc2)NC(=O)[C@H](CCN)NC(=O)[C@@H](NC(=O)[C@H](CCN)NC(=O)[C@@H](NC(=O)[C@H](CCN)NC(=O)c2cccc(-c3ccccc3)c2)[C@@H](C)O)CCNC1=O | 16 (≈ 11.8 µM) | > 16 | 16 (≈ 11.8 µM) | > 16 | > 16 |
| C[C@@H](O)[C@@H]1NC(=O)[C@H](CCN)NC(=O)[C@H](CCN)NC(=O)[C@H](Cc2ccccc2)NC(=O)[C@@H](Cc2ccccc2)NC(=O)[C@H](CCN)NC(=O)[C@@H](NC(=O)[C@H](CCN)NC(=O)[C@@H](NC(=O)[C@H](CCN)NC(=O)c2ccccc2)[C@@H](C)O)CCNC1=O | 16 (≈ 13.3 µM) | 2 (≈ 1.66 µM) | 2 (≈ 1.66 µM) | 4 (≈ 3.33 µM) | 2 (≈ 1.66 µM) |
| CCCCCCCC(=O)N[C@@H](CCN)C(=O)N[C@H](C(=O)N[C@@H](CCN)C(=O)N[C@H]1CCNC(=O)[C@H]([C@@H](C)O)NC(=O)[C@H](CCN)NC(=O)[C@H](CCN(C)C)NC(=O)[C@H](CC(C)C)NC(=O)[C@@H](CC(C)C)NC(=O)[C@H](CCN)NC1=O)[C@@H](C)O | 4 (≈ 3.38 µM) | 2 (≈ 1.69 µM) | 4 (≈ 3.38 µM) | 4 (≈ 3.38 µM) | 4 (≈ 3.38 µM) |
| C[C@@H](O)[C@@H]1NC(=O)[C@H](CCN)NC(=O)[C@H](CCN)NC(=O)[C@H](Cc2ccccc2)NC(=O)[C@@H](Cc2ccccc2)NC(=O)[C@H](CCN)NC(=O)[C@@H](NC(=O)[C@H](CCN)NC(=O)[C@@H](NC(=O)[C@H](CCN)NC(=O)c2ccc(-c3ccccc3)cc2)[C@@H](C)O)CCNC1=O | 4 (≈ 3.13 µM) | 8 (≈ 6.26 µM) | 8 (≈ 6.26 µM) | 8 (≈ 6.26 µM) | 8 (≈ 6.26 µM) |
